PMC7280029, “Development of FRET‐based high‐throughput screening for viral RNase III inhibitors” (Molecular Plant Pathology, 2020)

Legend:
[1] = target: CSR3 (class 1 RNase III of Sweet potato chlorotic stunt virus) (Sweet potato chlorotic stunt virus, UniProt Q8JJW8); test: biochemical; type: biochemical; settings: for DSS (drug-sensitivity score): dose-response 1.25 nM to 50 µM, Breeze software
Experimental: A dose–response assay was carried out with the top 109 compounds (concentration range 1.25 nM to 50 µM). The data were analysed with Breeze software, which generates dose–response curves and calculates the half‐maximal inhibitory concentration (IC50) and drug‐sensitivity score (DSS) for every compound. Considering that IC50 alone cannot comprehensively evaluate the drug sensitivity of the dose–response model in HTS assay, DSS was developed by Yadav et al. (2014) as a systematic algorithmic solution that integrated five factors: IC50, the slope at IC50, minimum activity level, and top and bottom asymptotes of dose–response model. The DSS values ranged from 0 to 19.2. The three structures differ (Figure 6, starred compounds). […] Table S1 lists the 109 compounds from the dose–response screens for CSR3, including information for compound identity, IC50, DSS, and dose–response curves.
For the HTS assay, plates (10 µM compound in each well) were prepared with an Echo liquid handler (Labcyte) at the FIMM (Institute for Molecular Medicine Finland) High‐Throughput Biomedicine unit. CSR3 and annealed siRNA were diluted to […] and 750 nM, respectively, in reaction buffer (50 mM Tris‐HCl, 125 mM NaCl, 25 mM MgCl2, pH 8.0). CSR3 solutions were dispensed into the wells of plates (10 µl CSR3 per well). Plates were incubated at room temperature for 15 min with shaking (450 rpm). Subsequently, 10 µl substrate was dispensed per well. […] The dose–response assay with six compound concentrations (range, 1.25 nM to 50 µM) was carried out with the same conditions. Plates were sealed, centrifuged briefly, and then, immediately analysed with a PHERAstar FS (BMG Labtech) with a fluorescence‐intensity optic module (excitation at 485 ± 6 nm, detection at 520 ± 5 nm) for 12 cycles (c.17 min total) at 37 °C. All dispensing was done using the BioTek MultiFlo FX. All screening plates contained positive‐control wells (lacking CSR3) and negative‐control wells (25 nl dimethyl sulphoxide, vehicle), which were used as standards to calculate the PI of compounds.
The PI of each compound for CSR3 was calculated according to Equation 2. A PI threshold of 30% was used as the cut‐off value for one concentration of HTS. Furthermore, the dose–response curves of PI in function of compound concentration were evaluated with DSS according to Yadav et al. (2014).(2) PI=1001-Ss-Sc+/SC--Sc+% where Sc + is the mean of the slope of the positive control, Sc − is the mean of the slope of the negative control, and Ss is the mean of the slope of samples.

[2] = system: HIV-1 reverse transcriptase; parameters: method as in PubChem database; settings: ref PubChem database; cited from earlier work
[3] = system: human heat shock 70 kDa protein; parameters: method as in PubChem database; settings: ref PubChem database; cited from earlier work
[4] = system: Cytokine/receptor Binary Complex of humans (4KC3_B); parameters: method as in PubChem database; settings: ref PubChem database; cited from earlier work
CSR3 = CSR3 kinetics with labelled siRNA substrate (Michaelis-Menten); type: biochemical, Sweet potato chlorotic stunt virus; settings: 50 nM CSR3, 50-800 nM labelled siRNA
Experimental: To monitor the kinetics of CSR3 endoribonuclease activity, two‐fold dilutions (yielding 50–800 nM) of the labelled siRNA substrate were tested with 50 nM CSR3. As expected, start points of raw fluorescence increased with the FRET‐siRNA concentration (Figure 4a). Moreover, the slope of the raw fluorescence between all neighbouring detection cycles was calculated for all cycle numbers. […] Finally, the maximal slope for every labelled siRNA concentration was used to determine the catalytic rate of CSR3.
The HTS assay was designed to maximize siRNA cleavage by CSR3. We used a donor–quencher fluorogenic siRNA as the substrate for CSR3. […] To assess CSR3 activity, five labelled siRNA concentrations (50–800 nM) were used with 50 nM CSR3. To test the reproducibility and precision of the assay, full plates containing only negative (50 nM CSR3) and positive reactions (lacking CSR3) were tested with 375 nM labelled siRNA. […]
The kinetic constant (K d) for CSR3 was calculated using the three‐parameter Michaelis–Menten model (MM.3) included in the R package dcr (Ritz et al., 2015). The statistical significance of differences between values was assessed with one‐way ANOVA using the aov function in the R package.

CSR3 (class 1 RNase III of Sweet potato chlorotic stunt virus), sequence (Q8JJW8 entry or part of it): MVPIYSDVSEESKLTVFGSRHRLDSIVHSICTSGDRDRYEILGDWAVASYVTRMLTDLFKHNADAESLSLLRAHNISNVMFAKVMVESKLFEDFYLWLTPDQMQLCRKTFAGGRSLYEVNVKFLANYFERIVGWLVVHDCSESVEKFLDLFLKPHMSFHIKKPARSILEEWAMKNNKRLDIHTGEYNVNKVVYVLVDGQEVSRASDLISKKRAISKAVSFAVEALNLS

Molecule | DSS (drug-sensitivity score) [1] | IC50 [1] | also measured
CC(C)(C)C1CCc2c(sc(NC(=O)C3CC=CCC3C(=O)O)c2C(N)=O)C1 (stereo not drawn) [FIMM104970] | 0 |  | 
Cc1ccc(C)c(C(=O)CSc2nnc[nH]2)c1 [FIMM027745] | 19.2 | 647 nM | activity in inhibitor screen [2]: inactive; activity in inhibitor screen [3]: inactive
O=S(=O)(O)c1cccc2cc(O)ccc12 [FIMM072577] | 18.3 | 699 nM | 
Cc1ccc([C@@H]2Nc3ccc(C(=O)O)cc3[C@@H]3C=CC[C@@H]32)cc1 [FIMM031755] |  | 1270 nM | activity in inhibitor screening assay [4]: effective at micromolar concentrations
O=C1c2c(O)ccc(O)c2C(=O)c2c(NCCNCCO)ccc(NCCNCCO)c21 [FIMM000490] | 14.9 | 1810 nM | 
O=C(O)c1ccc(C2Nc3c(Br)cccc3C3C=CCC32)cc1 (stereo not drawn) [FIMM022230] | 13.8 | 1860 nM | 
CN1C(=O)C(=CNc2ccc(F)cc2)C(=O)N(C)C1=O [FIMM059523] | 0 | > 50000 nM | 
CCn1c(S)nnc1CCNC(=O)c1cccs1 [FIMM099662] | 11.7 | 3070 nM | 
c1cnc2[nH]c(Nc3ccc(Nc4nc5cccnc5[nH]4)cc3)nc2c1 [FIMM092170] | 12.9 | 2840 nM | 
labelled siRNA: 22 bp siRNA with two-nucleotide 3' overhang, FAM reporter and BHQ1 quencher on the sense strand; CSR3 substrate (sense CGUAGUGGAAGUGGGAGAGGTC; antisense CCUCUCCCACUUCCACUACGTG; FAM reporter and BHQ1 quencher on sense strand, positions not given here) |  |  | Km (CSR3; Michaelis-Menten model MM.3): 0.229 µM; Vmax (CSR3; maximal slope): 22.47
CCn1c(C)nc2cc(S(N)(=O)=O)ccc21 [FIMM028155] | 17.6 | 782 nM | 
CN1CCc2cccc3c2[C@H]1Cc1ccc(O)c(O)c1-3 [FIMM000096] | 12.7 | 2900 nM | 
COc1cc(C=C2C(=O)NC(=S)NC2=O)ccc1OCc1ccccc1[N+](=O)[O-] [FIMM101864] | 11.2 | 3850 nM | 
